Read-outs that look alike come from different tables or passages of the source.

Data set [1] deals with healthy volunteers. Briefly: Food effect cross-over study, healthy volunteers: safety. In kind it is in vivo, human. The procedure:
ECG was performed as described in Example 1. The following intervals were measured: RR, PR, QRS, and QT. Heart rate (HR) was calculated as 60/(RR×1000) (with RR expressed in msec) and rounded to the nearest integer. Each individual ECG QT value was corrected for HR. The measured QT data was corrected for HR using the Fridericia method (QTcF) as per the following formulae/method (with QT, RR and QTc expressed in ms): […]
The Investigator or designee monitored the continuous ECG telemetry data and correlated the finding(s) with any other clinical findings, study participant's medical history, study participant's clinical status and laboratory data to determine the clinical importance of the finding.
Serum troponin-I concentrations were determined as described in Example 1. Abnormal and/or rising troponin values (as per Investigator's judgment and taking into account potential Baseline troponin elevation) led to the subject being clinically evaluated for possible myocardial ischemia. […] The entire clinical context would be evaluated (e.g., signs, symptoms, new ECG changes, new troponin, and CK-MB abnormalities) and correlated with any other relevant clinical findings, the subject's medical history, and laboratory data to determine the clinical significance of the findings.

Data set [2] in a line: Unbound (free) fraction in plasma. The class given is in vitro ADME.
The target of data set [3] is cardiac actin and myosin (Homo sapiens, UniProt P12883). The data set is described as follows: Crossbridge formation (phosphate release) and detachment (ADP release) between cardiac actin and myosin. In kind it is biochemical. From the text: or a pharmaceutically acceptable salt thereof. […] Crossbridge formation and detachment are critical steps in each cycle of cardiac contraction. Compound I reversibly binds to myosin, increasing the number of myosin/actin crossbridges available to participate in the strongly bound state of the chemomechanical cycle and thereby increasing contraction.
Sequence of cardiac actin and myosin (P12883 whole entry): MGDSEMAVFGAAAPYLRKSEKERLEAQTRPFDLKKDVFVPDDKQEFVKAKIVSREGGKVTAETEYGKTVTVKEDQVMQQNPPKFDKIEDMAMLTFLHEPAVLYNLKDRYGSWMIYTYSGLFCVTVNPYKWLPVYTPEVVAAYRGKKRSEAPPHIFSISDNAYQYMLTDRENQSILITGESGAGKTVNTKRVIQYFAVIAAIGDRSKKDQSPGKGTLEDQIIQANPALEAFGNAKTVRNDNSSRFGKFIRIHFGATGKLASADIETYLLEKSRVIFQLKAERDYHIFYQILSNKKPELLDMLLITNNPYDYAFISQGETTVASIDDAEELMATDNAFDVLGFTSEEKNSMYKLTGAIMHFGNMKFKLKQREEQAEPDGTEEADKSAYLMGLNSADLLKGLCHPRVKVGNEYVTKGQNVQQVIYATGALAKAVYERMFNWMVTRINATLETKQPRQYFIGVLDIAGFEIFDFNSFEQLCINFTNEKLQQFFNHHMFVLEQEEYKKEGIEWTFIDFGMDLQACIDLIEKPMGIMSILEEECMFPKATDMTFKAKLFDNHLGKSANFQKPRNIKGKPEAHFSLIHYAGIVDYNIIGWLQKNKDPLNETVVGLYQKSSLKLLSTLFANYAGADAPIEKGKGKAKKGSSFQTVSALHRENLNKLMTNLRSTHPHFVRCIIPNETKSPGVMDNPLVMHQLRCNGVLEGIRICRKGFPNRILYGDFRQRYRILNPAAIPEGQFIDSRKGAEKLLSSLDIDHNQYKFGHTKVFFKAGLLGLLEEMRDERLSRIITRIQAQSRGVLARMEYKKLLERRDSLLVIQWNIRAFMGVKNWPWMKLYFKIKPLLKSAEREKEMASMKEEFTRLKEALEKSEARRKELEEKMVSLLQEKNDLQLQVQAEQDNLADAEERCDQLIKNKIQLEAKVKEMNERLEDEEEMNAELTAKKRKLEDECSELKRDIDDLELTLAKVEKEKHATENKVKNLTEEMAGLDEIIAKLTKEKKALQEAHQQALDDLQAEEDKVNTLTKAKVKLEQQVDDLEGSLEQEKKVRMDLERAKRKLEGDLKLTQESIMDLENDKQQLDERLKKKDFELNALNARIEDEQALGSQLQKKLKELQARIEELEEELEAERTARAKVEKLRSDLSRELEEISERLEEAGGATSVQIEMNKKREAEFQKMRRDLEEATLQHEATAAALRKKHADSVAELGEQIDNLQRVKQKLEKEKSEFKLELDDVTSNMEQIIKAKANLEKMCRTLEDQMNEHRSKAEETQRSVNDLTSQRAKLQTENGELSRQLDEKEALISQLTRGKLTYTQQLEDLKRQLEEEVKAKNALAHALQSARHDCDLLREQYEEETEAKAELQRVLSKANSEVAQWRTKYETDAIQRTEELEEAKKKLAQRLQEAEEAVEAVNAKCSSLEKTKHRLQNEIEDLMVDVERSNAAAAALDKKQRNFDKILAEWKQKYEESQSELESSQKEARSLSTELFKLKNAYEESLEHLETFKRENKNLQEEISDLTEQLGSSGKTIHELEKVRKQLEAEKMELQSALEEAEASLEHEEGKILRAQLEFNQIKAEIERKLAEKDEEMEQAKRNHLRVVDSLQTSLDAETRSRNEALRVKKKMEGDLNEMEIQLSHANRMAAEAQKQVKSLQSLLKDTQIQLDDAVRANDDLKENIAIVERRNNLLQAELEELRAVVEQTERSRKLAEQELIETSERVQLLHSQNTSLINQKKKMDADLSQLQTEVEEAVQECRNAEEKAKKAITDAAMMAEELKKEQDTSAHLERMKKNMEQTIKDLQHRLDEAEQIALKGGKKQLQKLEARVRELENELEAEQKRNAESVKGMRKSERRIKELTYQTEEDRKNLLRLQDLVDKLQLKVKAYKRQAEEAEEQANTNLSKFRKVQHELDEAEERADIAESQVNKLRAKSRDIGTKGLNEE
Sequence of cardiac actin and myosin (P08590 whole entry partner): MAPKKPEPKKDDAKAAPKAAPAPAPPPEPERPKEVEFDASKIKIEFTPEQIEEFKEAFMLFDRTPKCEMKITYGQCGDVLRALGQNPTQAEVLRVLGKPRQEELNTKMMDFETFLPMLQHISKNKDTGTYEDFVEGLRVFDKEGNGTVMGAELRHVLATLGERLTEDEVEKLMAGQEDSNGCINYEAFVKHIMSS

On to `Cn1cc(S(=O)(=O)[C@@](C)(F)C2CCN(C(=O)Nc3ccon3)CC2)c(C(F)F)n1` [Compound I, (R)-4-(1-((3-(difluoromethyl)-1-methyl-1H-pyrazol-4-yl)sulfonyl)-1-fluoroethyl)-N-(isoxazol-3-yl)piperidine-1-carboxamide], for which the troponin-I entry in data set [1] (200 mg, fasted or fed state) is “No increase”. In addition, the “abnormal ECG results” value in data set [1] (200 mg, fasted state) was 3 (30.0%); in data set [1] (200 mg, fed state) it was 2 (20.0%). Further, the headache in data set [1] (200 mg, fasted state) is 4 subjects; in data set [1] (200 mg, fed state), 1 subject. Besides, the tolerability entry in data set [1] (single dose of 200 mg) is “well-tolerated”. For the same molecule, the fraction unbound in data set [2] (dog, Dog plasma, read-out: fup (Dog), unbound fraction in plasma) is 0.416; in data set [2] (human, Human plasma, 0.1 to 10 μM, read-out: fup (Human), unbound fraction in plasma), 0.144 to 0.164; in data set [2] (human, read-out: fu, free fraction of Compound I in plasma), 0.14 to 0.18. For the same molecule, the “crossbridge detachment (measured as ADP release)” value in data set [3] was “does not inhibit crossbridge detachment”. Moreover, the “crossbridge formation (measured as phosphate release)” value in data set [3] (between cardiac actin and myosin) is reported as “increases crossbridge formation”.

Values taken from patent publication US20220265629A1, “TREATMENT OF SYSTOLIC DYSFUNCTION AND HEART FAILURE WITH REDUCED EJECTION FRACTION WITH THE COMPOUND (R)-4-(1-((3-(DIFLUOROMETHYL)-1-METHYL-1H-PYRAZOL-4-YL)SULFONYL)-1-FLUOROETHYL)-N-(ISOXAZOL-3-YL)PIPERIDINE-1-CARBOXAMIDE” (MyoKardia, Inc., priority 2019, published 2022).
